Literature values, collected in patent publication US20260237528A1, “DRUG COMBINATIONS SCREENING” (Hoffmann-La Roche Inc., priority 2023, published 2026).

System: tumour growth
Details: tested alone

Row | Structure (SMILES) | anti-tumour activity
1 | CN(C)CCCN1c2ccccc2Sc2ccc(Cl)cc21 [chlorpromazine] | Neither of these drugs showed any anti-tumour activity when tested alone
2 | N=C(N)c1ccc(OCCCCCOc2ccc(C(=N)N)cc2)cc1 [pentamidine] | Neither of these drugs showed any anti-tumour activity when tested alone
